Where two headings read alike, the source gives them in different places.
Key:
[1] = system: cellular H3K36me2 level in thyroid carcinoma cell line CGTH-W-1 (NSD2 E1099K); assay: H3K36me2 cellular ELISA assay in CGTH-W-1 line; format: cell-based; settings: Homo sapiens, CGTH-W-1, 72 h, read-out: H3K36me2 ELISA in CGTH-W-1
Method: H3K36Me2 Cellular ELISA Assay in CGTH-W-1 Line
An ELISA (enzyme-linked immunosorbent assay) based assay was used to test the ability of candidate compound to reduce cellular H3K36me2 level in thyroid carcinoma cell line CGTH-W-1, carrying NSD2 E1099K gain of function mutation. CGTH-W-1 (DSMZ) cells are maintained in RPM11640 media with 10% FBS and 50 U/ml Penicillin-Streptomycin.
Cells were treated with tested compounds at the desired concentration for 72 hours.
Histone bound plates were washed and blocked with 5% BSA. […] The abundance of H3K36me2 and total H3 was measured by Chemiluminesce on a plate reader. Cell viability was monitored on a parallel seeded plate with CellTiter-Glo reagent (Promega #G7573).

[2] = system: cellular H3K36me2 level in multiple myeloma cell line KMS11 (t(4;14)+); assay: H3K36me2 cellular ELISA assay in KMS11-Par line; format: cell-based; settings: Homo sapiens, KMS-11, ELISA, read-out: H3K36me2 ELISA in KMS11-Par
Outline: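 KMS11 cells were seeded a day ahead at 1,250 per well in Opti-MEM with B-27/N2, then treated with compound for 72 h. Histones were acid-extracted with 0.4M HCl, and H3K36me2 and total H3 were read by chemiluminescent ELISA. Viability was checked with CellTiter-Glo on a parallel plate in maintenance media.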

NSD2 [1-1365] = NSD2 [1-1365] (Homo sapiens (Human), UniProt O96028); assay: LC-MS/MS-based NSD2 enzymatic assay (SAH production); format: biochemical; settings: read-out: NSD2 IC50
Chain of NSD2 [1-1365] (O96028 whole entry): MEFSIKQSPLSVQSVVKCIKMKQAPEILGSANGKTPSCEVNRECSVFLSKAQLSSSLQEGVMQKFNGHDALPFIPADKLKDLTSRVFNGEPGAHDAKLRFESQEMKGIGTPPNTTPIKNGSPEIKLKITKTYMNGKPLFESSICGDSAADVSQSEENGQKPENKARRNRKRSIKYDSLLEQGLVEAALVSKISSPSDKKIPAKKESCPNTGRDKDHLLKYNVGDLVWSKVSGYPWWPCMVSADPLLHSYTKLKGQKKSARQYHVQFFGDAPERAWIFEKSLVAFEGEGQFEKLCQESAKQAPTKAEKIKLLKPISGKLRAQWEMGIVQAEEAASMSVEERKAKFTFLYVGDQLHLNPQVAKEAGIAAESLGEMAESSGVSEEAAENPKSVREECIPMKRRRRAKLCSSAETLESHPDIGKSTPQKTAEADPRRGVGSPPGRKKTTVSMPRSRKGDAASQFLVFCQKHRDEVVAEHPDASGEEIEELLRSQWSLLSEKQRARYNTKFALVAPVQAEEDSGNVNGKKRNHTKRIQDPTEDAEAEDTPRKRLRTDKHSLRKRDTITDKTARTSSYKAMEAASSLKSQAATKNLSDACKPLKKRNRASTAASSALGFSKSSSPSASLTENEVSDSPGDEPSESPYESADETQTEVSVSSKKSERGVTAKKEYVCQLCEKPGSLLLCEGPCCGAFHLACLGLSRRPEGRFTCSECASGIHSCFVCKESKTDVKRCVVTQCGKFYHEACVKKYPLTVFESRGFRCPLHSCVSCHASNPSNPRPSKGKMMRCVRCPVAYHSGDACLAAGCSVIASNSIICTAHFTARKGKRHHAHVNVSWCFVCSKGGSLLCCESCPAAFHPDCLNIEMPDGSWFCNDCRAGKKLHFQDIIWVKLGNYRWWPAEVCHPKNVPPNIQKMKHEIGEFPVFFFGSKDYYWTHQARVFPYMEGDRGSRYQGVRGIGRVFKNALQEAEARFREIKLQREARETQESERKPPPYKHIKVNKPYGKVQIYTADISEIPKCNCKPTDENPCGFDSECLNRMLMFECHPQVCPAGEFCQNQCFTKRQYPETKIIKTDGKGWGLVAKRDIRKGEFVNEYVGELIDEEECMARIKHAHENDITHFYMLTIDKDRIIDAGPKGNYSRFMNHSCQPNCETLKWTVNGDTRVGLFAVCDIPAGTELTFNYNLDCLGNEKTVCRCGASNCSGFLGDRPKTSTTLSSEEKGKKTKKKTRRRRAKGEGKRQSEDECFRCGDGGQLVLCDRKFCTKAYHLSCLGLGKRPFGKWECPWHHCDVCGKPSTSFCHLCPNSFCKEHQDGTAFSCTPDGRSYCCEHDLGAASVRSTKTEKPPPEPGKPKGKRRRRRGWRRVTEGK
Outline: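 Full-length NSD2 [1-1365] (8 nM final) with 1 μM SAM and 400 nM mouse-liver nucleosome in Tris pH 8.0 buffer; inhibitor preincubated 20 min with enzyme/SAM before nucleosome addition. Reaction 90 min at room temperature, TFA-quenched; SAH quantified by LC-MS/MS against d4-SAH internal standard and SAH standard curve.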

[3] = KMS11-Par line (t(4;14)+), 72 hours treatment
[4] = NSD2 biochemical activity, class symbols

Question: For `Nc1ncnc2c1ncn2Cc1cc(-c2ccc(F)c(F)c2)ncc1N1CCC[C@](N)(c2cc(O)cc(Cl)n2)C1` [Example 219, (R)-2-(3-amino-1-(4-((6-amino-9H-purin-9-yl)methyl)-6-(3,4-difluorophenyl)pyridin-3-yl)piperidin-3-yl)-6-chloropyridin-4-ol], which IC50 [1] is on record?
Answer: The IC50 was 407 nM.

Question: And the IC50 ([2]; KMS11-Par line, 72 hours)?
Answer: Its IC50 is 3450 nM.

Question: What about the IC50 (NSD2 [1-1365]) of the same compound?
Answer: Its IC50 is 1 to 10 nM.

Question: What does the source list for `COc1ccc(-c2cc(Cn3cnc4c(N)ncnc43)c(N3CCC[C@](N)(c4ccc(F)c(C)n4)C3)cn2)cc1` [Example 241, (R)-9-((5-(3-amino-3-(5-fluoro-6-methylpyridin-2-yl)piperidin-1-yl)-2-(4-methoxyphenyl)pyridin-4-yl)methyl)-9H-purin-6-amine]?
Answer: IC50 [1]: 1190 nM; IC50 ([2]; KMS11-Par line, 72 hours): 4080 nM; IC50 (NSD2 [1-1365]): 10 to 1000 nM

Question: For `CC(=C(F)F)[C@@]1(N)CCCN(c2cnc(-c3ccc(F)c(F)c3)cc2Cn2cnc3c(N)ncnc32)C1` [Example 293, (S)-9-((5-(3-amino-3-(1,1-difluoroprop-1-en-2-yl)piperidin-1-yl)-2-(3,4-difluorophenyl)pyridin-4-yl)methyl)-9H-purin-6-amine], which IC50 [1] is on record?
Answer: The IC50 was 1300 nM.

Question: And the IC50 ([2]; KMS11-Par line, 72 hours)?
Answer: Its IC50 is 3210 nM.

Question: What about the IC50 (NSD2 [1-1365]) of the same compound?
Answer: The IC50 was 10 to 1000 nM.

Question: What does the source list for `Nc1ncnc2c1ncn2Cc1cc(-c2ccc(F)c(Cl)c2)ncc1N1CCC[C@](N)([C@H](O)C(F)F)C1` [Example 139, (S)-1-((R)-3-amino-1-(4-((6-amino-9H-purin-9-yl)methyl)-6-(3-chloro-4-fluorophenyl)pyridin-3-yl)piperidin-3-yl)-2,2-difluoroethan-1-ol]?
Answer: IC50 [1]: 669 nM; IC50 [2, 3]: 2840 nM; IC50 (NSD2 [1-1365]; [4]): 10 to 1000 nM

Question: With `Nc1ncnc2c1ncn2Cc1cc(-c2ccc(F)c(F)c2)ncc1N1CCC[C@](N)(c2ccc[nH]c2=O)C1` [Example 272, (S)-3-(3-amino-1-(4-((6-amino-9H-purin-9-yl)methyl)-6-(3,4-difluorophenyl)pyridin-3-yl)piperidin-3-yl)pyridin-2(1H)-one] as the compound, how does the IC50 [1] read?
Answer: Its IC50 is 1750 nM.

Question: And the IC50 ([2]; KMS11-Par line, 72 hours)?
Answer: Its IC50 is 10500 nM.

Question: And the IC50 (NSD2 [1-1365])?
Answer: The IC50 was 1 to 10 nM.

Question: For `Nc1ncnc2c1ncn2Cc1cc(-c2cc(F)c(F)cc2C(F)F)ncc1N1CCC[C@](N)([C@@H]2COCCO2)C1` [Example 291, 9-((5-((R)-3-amino-3-((R)-1,4-dioxan-2-yl)piperidin-1-yl)-2-(2-(difluoromethyl)-4,5-difluorophenyl)pyridin-4-yl)methyl)-9H-purin-6-amine], which IC50 [1] is on record?
Answer: The IC50 was 812 nM.

Question: What about the IC50 ([2]; KMS11-Par line, 72 hours) of the same compound?
Answer: The IC50 was 1690 nM.

Question: And the IC50 (NSD2 [1-1365])?
Answer: Its IC50 is 10 to 1000 nM.

Question: Which results are given for `Nc1ncnc2c1ncn2Cc1cc(-c2ccc(F)c(F)c2)ncc1N1CCC[C@](N)(c2cccc(Cl)n2)C1` [Example 200, (R)-9-((5-(3-amino-3-(6-chloropyridin-2-yl)piperidin-1-yl)-2-(3,4-difluorophenyl)pyridin-4-yl)methyl)-9H-purin-6-amine]?
Answer: IC50 [1]: 180 nM; IC50 ([2]; KMS11-Par line, 72 hours): 330 nM; IC50 (NSD2 [1-1365]): 1 to 10 nM

Question: Which results are given for `Nc1ncnc2c1ncn2Cc1cc(-c2ccc(F)c(F)c2)ncc1N1CCC[C@](N)(c2ccccn2)C1` [Example 198, (R)-9-((5-(3-amino-3-(pyridin-2-yl)piperidin-1-yl)-2-(3,4-difluorophenyl)pyridin-4-yl)methyl)-9H-purin-6-amine]?
Answer: IC50 [1]: 17.7 nM; IC50 ([2]; KMS11-Par line, 72 hours): 41 nM; IC50 (NSD2 [1-1365]): 1 to 10 nM

Question: Which IC50 [1] does the source give for `Nc1ncnc2c1ncn2Cc1cc(-c2ccc(F)c(F)c2)ncc1N1CCC[C@](N)([C@H](F)c2ccccn2)C1` [Example 91, 9-((5-((R)-3-amino-3-((S)-fluoro(pyridin-2-yl)methyl)piperidin-1-yl)-2-(3,4-difluorophenyl)pyridin-4-yl)methyl)-9H-purin-6-amine] here?
Answer: The IC50 was 121 nM.

Question: What about the IC50 [2, 3] of the same compound?
Answer: Its IC50 is 890 nM.

Question: And the IC50 (NSD2 [1-1365]; [4])?
Answer: The IC50 was 1 to 10 nM.

Question: What does the source list for `COc1ccc(-c2cc(Cn3cnc4c(N)ncnc43)c(N3CCC[C@](N)(c4ccc(F)c(Cl)n4)C3)cn2)cc1F` [Example 188, (R)-9-((5-(3-amino-3-(6-chloro-5-fluoropyridin-2-yl)piperidin-1-yl)-2-(3-fluoro-4-methoxyphenyl)pyridin-4-yl)methyl)-9H-purin-6-amine]?
Answer: IC50 [1]: 1010 nM; IC50 ([2]; KMS11-Par line, 72 hours): 1910 nM; IC50 (NSD2 [1-1365]): 1 to 10 nM

Question: With `COc1cc(F)ccc1-c1cc(Cn2cnc3c(N)ncnc32)c(N2CCC[C@](N)([C@@H](O)C(F)F)C2)cn1` [Example 174, (R)-1-((R)-3-amino-1-(4-((6-amino-9H-purin-9-yl)methyl)-6-(4-fluoro-2-methoxyphenyl)pyridin-3-yl)piperidin-3-yl)-2,2-difluoroethan-1-ol] as the compound, how does the IC50 [1] read?
Answer: The IC50 was 1160 nM.

Question: And the IC50 ([2]; KMS11-Par line, 72 hours)?
Answer: The IC50 was 10600 nM.

Question: And the IC50 (NSD2 [1-1365])?
Answer: The IC50 was 10 to 1000 nM.

Question: With `Nc1ncnc2c1ncn2Cc1cc(-c2ccc(F)cn2)ncc1N1CCC[C@](N)(c2cccc(Cl)n2)C1` [Example 196, (R)-9-((5-(3-amino-3-(6-chloropyridin-2-yl)piperidin-1-yl)-5′-fluoro-[2,2′-bipyridin]-4-yl)methyl)-9H-purin-6-amine] as the compound, how does the IC50 [1] read?
Answer: The IC50 was 637 nM.

Question: And the IC50 ([2]; KMS11-Par line, 72 hours)?
Answer: Its IC50 is 2690 nM.

Question: What about the IC50 (NSD2 [1-1365]) of the same compound?
Answer: The IC50 was 10 to 1000 nM.

Question: `Nc1ncnc2c1ncn2Cc1cc(-c2ccc(F)c(F)c2)ncc1N1CCC[C@](N)(c2cc(O)cc(F)n2)C1` [Example 206, (R)-2-(3-amino-1-(4-((6-amino-9H-purin-9-yl)methyl)-6-(3,4-difluorophenyl)pyridin-3-yl)piperidin-3-yl)-6-fluoropyridin-4-ol] was tested. Which IC50 [1] did it give?
Answer: The IC50 was 117 nM.

Question: And the IC50 ([2]; KMS11-Par line, 72 hours)?
Answer: Its IC50 is 1160 nM.

Question: What about the IC50 (NSD2 [1-1365]) of the same compound?
Answer: The IC50 was 1 to 10 nM.

Question: Which IC50 [1] does the source give for `Nc1ncnc2c1ncn2Cc1cc(-c2cnc(F)c(F)c2)ncc1N1CCCC(N)(c2cccc(Cl)n2)C1` (stereo not drawn) [Example 240, 9-((5-(3-amino-3-(6-chloropyridin-2-yl)piperidin-1-yl)-5′,6′-difluoro-[2,3′-bipyridin]-4-yl)methyl)-9H-purin-6-amine] here?
Answer: Its IC50 is 821 nM.

Question: And the IC50 ([2]; KMS11-Par line, 72 hours)?
Answer: The IC50 was 5930 nM.

Question: What about the IC50 (NSD2 [1-1365]) of the same compound?
Answer: The IC50 was 10 to 1000 nM.

Question: With `CC(C)C(C)C(=O)C1(N)CCCN(c2cnc(-c3ccc(F)c(F)c3)cc2Cn2cnc3c(N)ncnc32)C1` (stereo not drawn) [Example 89, 1-(3-amino-1-(4-((6-amino-9H-purin-9-yl)methyl)-6-(3,4-difluorophenyl)pyridin-3-yl)piperidin-3-yl)-2,3-dimethylbutan-1-one] as the compound, how does the IC50 [1] read?
Answer: The IC50 was 245 nM.

Question: And the IC50 [2, 3]?
Answer: Its IC50 is 684 nM.

Question: And the IC50 (NSD2 [1-1365]; [4])?
Answer: The IC50 was 10 to 1000 nM.

Question: What does the source list for `Nc1ncnc2c1ncn2Cc1cc(-c2ccc(F)c(F)c2)ncc1N1CCC[C@](N)([C@H](O)C(F)(F)F)C1` [Example 299, (S)-1-((R)-3-amino-1-(4-((6-amino-9H-purin-9-yl)methyl)-6-(3,4-difluorophenyl)pyridin-3-yl)piperidin-3-yl)-2,2,2-trifluoroethan-1-ol]?
Answer: IC50 [1]: 1160 nM; IC50 ([2]; KMS11-Par line, 72 hours): 9830 nM; IC50 (NSD2 [1-1365]): 10 to 1000 nM

Question: How did the IC50 [1] turn out when `Nc1ncnc2c1ncn2Cc1cc(-c2ccc(F)c(F)c2)ncc1N1CCCC(N)(c2cccnn2)C1` (stereo not drawn) [Example 253, 9-((5-(3-amino-3-(pyridazin-3-yl)piperidin-1-yl)-2-(3,4-difluorophenyl)pyridin-4-yl)methyl)-9H-purin-6-amine] was run?
Answer: The IC50 was 357 nM.

Question: What about the IC50 (NSD2 [1-1365]) of the same compound?
Answer: The IC50 was 10 to 1000 nM.

Question: Which IC50 [1] does the source give for `Nc1ncnc2c1ncn2Cc1cc(-c2ccc(F)cc2)ncc1N1CCC[C@](N)(c2ccc(F)c(C(F)F)n2)C1` [Example 218, (R)-9-((5-(3-amino-3-(6-(difluoromethyl)-5-fluoropyridin-2-yl)piperidin-1-yl)-2-(4-fluorophenyl)pyridin-4-yl)methyl)-9H-purin-6-amine] here?
Answer: The IC50 was 101 nM.

Question: What about the IC50 (NSD2 [1-1365]) of the same compound?
Answer: The IC50 was 10 to 1000 nM.

Question: What does the source list for `N#Cc1cccc(C2(N)CCCN(c3cnc(-c4ccc(F)c(F)c4)cc3Cn3cnc4c(N)ncnc43)C2)n1` (stereo not drawn) [Example 208, 6-(3-amino-1-(4-((6-amino-9H-purin-9-yl)methyl)-6-(3,4-difluorophenyl)pyridin-3-yl)piperidin-3-yl)picolinonitrile]?
Answer: IC50 [1]: 2780 nM; IC50 (NSD2 [1-1365]): 10 to 1000 nM

Question: Which results are given for `Cn1ncc2cc(-c3cc(Cn4cnc5c(N)ncnc54)c(N4CCCC(N)(c5cccc(Cl)n5)C4)cn3)ccc21` (stereo not drawn) [Example 225, 9-((5-(3-amino-3-(6-chloropyridin-2-yl)piperidin-1-yl)-2-(1-methyl-1H-indazol-5-yl)pyridin-4-yl)methyl)-9H-purin-6-amine]?
Answer: IC50 [1]: 1960 nM; IC50 (NSD2 [1-1365]): 10 to 1000 nM

Question: Which results are given for `Cc1cncc([C@@]2(N)CCCN(c3cnc(-c4ccc(F)c(F)c4)cc3Cn3cnc4c(N)ncnc43)C2)n1` [Example 258, (R)-9-((5-(3-amino-3-(6-methylpyrazin-2-yl)piperidin-1-yl)-2-(3,4-difluorophenyl)pyridin-4-yl)methyl)-9H-purin-6-amine]?
Answer: IC50 [1]: 434 nM; IC50 (NSD2 [1-1365]): 10 to 1000 nM

Question: Which results are given for `Nc1ncnc2c1ncn2Cc1cc(-c2ccc(OC(F)F)cc2)ncc1N1CCCC(N)(c2cccc(Cl)n2)C1` (stereo not drawn) [Example 184, 9-((5-(3-amino-3-(6-chloropyridin-2-yl)piperidin-1-yl)-2-(4-(difluoromethoxy)phenyl)pyridin-4-yl)methyl)-9H-purin-6-amine]?
Answer: IC50 [1]: 592 nM; IC50 (NSD2 [1-1365]): 10 to 1000 nM

Source: patent US11420970B1 (NOVARTIS AG, priority 2019, dated 2022)
